Earlier results on 4 molecules are cited in patent publication US8246984B2, “Formulation of insoluble small molecule therapeutics in lipid-based carriers” (Rigel Pharmaceuticals, Inc., priority 2005, dated 2012).

For this series the following is noted: transition temperature, gel to liquid crystalline phase.

SMILES strings stand for the structures.

Regarding `CCCCCCCC/C=C\CCCCCCCC(=O)OC[C@H](COP(=O)([O-])OCC[N+](C)(C)C)OC(=O)CCCCCCC/C=C\CCCCCCCC` [Dioleoylphosphatidylcholine, 1,2-dioleoyl-sn-glycero-3-phosphocholine], the Tm was −22 °C.

`CCCCCCCCCCCCCCCCCC(=O)OC[C@H](COP(=O)([O-])OCC[N+](C)(C)C)OC(=O)CCCCCCCCCCCCCCCCC` [Distearoylphosphatidylcholine]: the Tm is 55 °C.

Consider `CCCCCCCCCCCCCCCC(=O)OC[C@H](COP(=O)([O-])OCC[N+](C)(C)C)OC(=O)CCCCCCCCCCCCCCC` [Dipalmitoylphosphatidylcholine], for which the Tm was 41 °C.

Take `CCCCCCCCCCCCCC(=O)OC[C@H](COP(=O)([O-])OCC[N+](C)(C)C)OC(=O)CCCCCCCCCCCCC` [Dimyristoylphosphatidylcholine]: the Tm is 23 °C.
